Read-outs that look alike come from different tables or passages of the source.
Legend:
Assay type in all cases: in vivo
Swiss white mice = assay: Mammalian toxicity, oral, Swiss white mice (LD50); conditions: propylene glycol carrier
Protocol: (§1) For mice toxicity, the compound was dissolved in propyleneglycol or corn oil as a carrier and all compounds were tested at the level up to 1,000 mg/kg. All of the above noted compounds tested were lower in toxicity as compared with the parent compounds.
(§2) Mammalian toxicity was determined against Swiss white mice.

[1] = system: house flies, Musca domestica; assay: whole plant or invertebrate; conditions: read-out: House flies LD50
Protocol: In another series of tests, stock 1% concentrated solutions of each of the test compounds of Table I below, and of the commercial related carbamate ester insecticides methomyl, carbofuran and oxamyl, were made in acetone, and such solutions were diluted with acetone to a concentration of 0.001-0.8%. House flies were treated topically on the notum by 1 μl of each of the diluted acetone solutions and percent mortality was counted 24 hours after application.

[2] = Mammalian toxicity, oral, Swiss white mice (LD50); conditions: mouse, in vivo, propylene glycol carrier
Protocol: as §1, §2

[3] = topical on the notum, 1 μl of 0.001-0.8% acetone solutions, 24 hours, 60° F

3-Methylphenyl N-(2-phenyl-1,3-dioxane-5-ylmethoxysulfinyl)-N-methylcarbamate [XVIII]
Mice LD50 (Swiss white mice): > 1,000 mg/kg

C=CCOCC(COS(=O)N(C)C(=O)ON=C(SC)C(=O)N(C)C)OS(=O)N(C)C(=O)ON=C(SC)C(=O)N(C)C (centres unmarked) [XXIX, N,N'-(3-Allyloxy-1,2-propanedioxysulfinyl)-bis[S-methyl N-methylcarbamoyloxy-2-(N',N'-dimethylamino)-2-oxoethanimidothioate]]
LD50 [1, 3]: 215 mg/kg
LD50 [2]: 12.5 to 25 mg/kg

C=CCOC(COS(=O)N(C)C(=O)ON=C(C)SC)COS(=O)N(C)C(=O)ON=C(C)SC (centres unmarked) [XII, N,N'-(2-Allyloxy-1,3-propanedioxysulfinyl)-bis (S-methyl N-methylcarbamoyloxythioacetimidate)]
LD50 [1, 3]: < 50 mg/kg
LD50 [2]: 88 mg/kg

CSC(=NOC(=O)N(C)S(=O)OC1C(C2COC(C)(C)O2)OC2OC(C)(C)OC21)C(=O)N(C)C (centres unmarked) [XXXV, S-Methyl N-(1,2,5,6-di-O-isopropylidene-3-O-glucofuranosylsulfinyl) N-methylcarbamoyloxy-2-(N',N'-dimethylamino)-2-oxoethanimidothioate]
LD50 [1, 3]: 26.5 mg/kg
LD50 [2]: 25 to 50 mg/kg

CSC(C)=NOC(=O)N(C)S(=O)OCCOS(=O)N(C)C(=O)ON=C(C)SC (centres unmarked) [Example I, N,N'-(1,2-ethanedioxysulfinyl)-bis (S-methyl N-methylcarbamoyloxy-thioacetimidate)]
LD50 [1, 3]: 60 mg/kg
LD50 [2]: 52 mg/kg

C=CCOCC(COS(=O)N(C)C(=O)ON=C(C)SC)OS(=O)N(C)C(=O)ON=C(C)SC (centres unmarked) [XI, N,N'-(3-Allyloxy-1,2-propanedioxysulfinyl)-bis (S-methyl N-methylcarbamoyloxythioacetimidate)]
LD50 [1, 3]: 40 mg/kg
LD50 [2]: 50 to 80 mg/kg

CSC(=NOC(=O)N(C)S(=O)OCC12OCC3OC(C)(C)OC3C1OC(C)(C)O2)C(=O)N(C)C (stereo not drawn) [XXXIV, S-Methyl N-(2,3,4,5-Di-O-isopropylidene-1-α-O-fructopyranosylsulfinyl)-N-methylcarbamoyloxy-2-(N',N'-dimethylamino)-2-oxoethanimidothioate]
LD50 [1, 3]: 20 mg/kg
LD50 [2]: 44 mg/kg

CSC(=NOC(=O)N(C)S(=O)OCC1COC(C)(C)O1)C(=O)N(C)C (centres unmarked) [XXVIII, S-Methyl N-(2,2-dimethyl-1,3-dioxolane-5-ylmethoxysulfinyl)-N-methylcarbamoyloxy-2-(N'N'-dimethylamino)-2-oxoethanimidothioate]
LD50 [1, 3]: 2.6 mg/kg
LD50 [2]: 31 mg/kg

CSC(C)=NOC(=O)N(C)S(=O)OCC12OCC3OC(C)(C)OC3C1OC(C)(C)O2 (stereo not drawn) [XVI, S-Methyl N-(2,3,4,5-di-O-isopropylidene-1-α-O-fructopyranosylsulfinyl)-N-methylcarbamoyloxythioacetimidate]
LD50 [1, 3]: 50 mg/kg
LD50 [2]: 500 mg/kg

CSC(=NOC(=O)N(C)S(=O)OC1COC(c2ccccc2)OC1)C(=O)N(C)C (centres unmarked) [XXVII, S-Methyl N-(2-phenyl-1,3-dioxane-5-ylmethoxysulfinyl)-N-methylcarbamoyloxy-2-(N',N'-dimethylamino)-2-oxoethanimidothioate]
LD50 [1, 3]: 161 mg/kg
LD50 [2]: 25 mg/kg

CN(C(=O)Oc1cccc2c1OC(C)(C)C2)S(=O)OCCCOS(=O)N(C)C(=O)Oc1cccc2c1OC(C)(C)C2 (centres unmarked) [Example II, N,N'-(1,3-Propanedioxysulfinyl)-bis (2,3-dihydro-2,2-dimethylbenzofuranyl-7 methylcarbamate)]
LD50 ([1]; topical, 24 h): 17 mg/kg
LD50 [2]: 92 mg/kg

CSC(C)=NOC(=O)N(C)S(=O)OCC1COC(C)(C)O1 (centres unmarked) [Example III, S-methyl N-(2,2-dimethyl-1,3-dioxolane-5-yl-methoxysulfinyl)-N-methylcarbamoyloxythioacetimidate]
LD50 [1, 3]: 7 mg/kg
LD50 [2]: 84 mg/kg
